# Experiments:
# [1] = target: T1, D(4) dopamine receptor (Homo sapiens, UniProt P21917); test: Displacement of [3H]YM-09151-2 from human cloned dopamine D4 receptor expressed in CHO cells
# T1 sequence (P21917 whole entry): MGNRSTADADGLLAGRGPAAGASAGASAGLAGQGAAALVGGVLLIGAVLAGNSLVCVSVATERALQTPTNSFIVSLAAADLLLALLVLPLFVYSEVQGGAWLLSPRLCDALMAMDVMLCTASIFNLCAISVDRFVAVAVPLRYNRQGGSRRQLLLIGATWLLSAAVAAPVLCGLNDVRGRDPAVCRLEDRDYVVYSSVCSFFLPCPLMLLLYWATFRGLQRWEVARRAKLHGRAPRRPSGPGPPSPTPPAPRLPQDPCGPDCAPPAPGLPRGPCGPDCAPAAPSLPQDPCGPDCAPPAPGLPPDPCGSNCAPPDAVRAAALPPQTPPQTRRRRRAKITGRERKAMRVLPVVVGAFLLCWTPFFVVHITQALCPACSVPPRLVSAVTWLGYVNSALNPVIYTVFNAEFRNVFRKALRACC
# [2] = target: D(3) dopamine receptor (Homo sapiens, UniProt P35462); test: biochemical
# D(3) dopamine receptor, sequence (P35462 whole entry): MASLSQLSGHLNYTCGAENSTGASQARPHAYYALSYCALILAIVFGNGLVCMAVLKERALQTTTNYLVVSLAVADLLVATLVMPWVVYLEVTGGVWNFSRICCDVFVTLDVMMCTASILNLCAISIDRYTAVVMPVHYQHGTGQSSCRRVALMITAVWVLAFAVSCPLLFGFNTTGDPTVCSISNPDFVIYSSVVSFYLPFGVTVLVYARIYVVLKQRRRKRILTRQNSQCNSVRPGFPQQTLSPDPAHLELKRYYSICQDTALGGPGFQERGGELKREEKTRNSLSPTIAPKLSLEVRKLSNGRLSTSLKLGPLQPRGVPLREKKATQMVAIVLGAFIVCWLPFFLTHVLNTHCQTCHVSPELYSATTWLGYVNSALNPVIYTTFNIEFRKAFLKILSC
# Description: Displacement of [3H]YM-09151-2 from human cloned dopamine D3 receptor expressed in CHO cells
# [3] = target: D(2) dopamine receptor (Homo sapiens, UniProt P14416); test: Displacement of [3H]spiperone from human cloned dopamine receptor D2 long expressed in CHO cells; assay type: cell-based
# D(2) dopamine receptor, sequence (P14416 whole entry): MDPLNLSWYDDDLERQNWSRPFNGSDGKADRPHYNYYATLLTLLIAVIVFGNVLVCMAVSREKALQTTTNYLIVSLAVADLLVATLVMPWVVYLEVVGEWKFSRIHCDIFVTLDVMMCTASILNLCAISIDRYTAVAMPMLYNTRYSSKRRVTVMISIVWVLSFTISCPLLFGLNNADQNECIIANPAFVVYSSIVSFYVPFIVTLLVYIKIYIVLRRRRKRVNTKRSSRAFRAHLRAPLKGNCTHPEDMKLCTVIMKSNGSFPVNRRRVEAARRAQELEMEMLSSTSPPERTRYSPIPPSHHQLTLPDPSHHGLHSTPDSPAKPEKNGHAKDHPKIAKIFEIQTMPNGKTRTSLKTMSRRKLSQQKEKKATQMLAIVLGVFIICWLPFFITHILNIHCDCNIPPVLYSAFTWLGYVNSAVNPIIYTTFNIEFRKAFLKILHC
SMILES,Ki [1] [nM],Ki [2] [nM],Ki [3] [nM]
COc1ccc(C2=NO[C@@H](CCCN3CCN(C(c4ccc(F)cc4)c4ccc(F)cc4)CC3)C2)cc1OC,483,20,400
CCOc1ccccc1N1CCN(CCC[C@@H]2CC(c3ccc(OC)c(OC)c3)=NO2)CC1,507,2.1,46
COc1ccc(C2=NO[C@H](CCCN3CCN(C(c4ccc(F)cc4)c4ccc(F)cc4)CC3)C2)cc1OC,426,2.1,80
CCOc1ccccc1N1CCN(CCC[C@H]2CC(c3ccc(OC)c(OC)c3)=NO2)CC1,225,5.1,70

# Reference: ChEMBL document CHEMBL1147208, “Asymmetric synthesis of chiral piperazinylpropylisoxazoline ligands for dopamine receptors” (Eur J Med Chem, 2007)
